pEC50: −log10 of the molar value. Numbered stars: 1 amine (or outer) side, 2 acyl side, 3 side chain; on linkers, the order of the positions; unused ones are H or OH. Square brackets hold non-standard residues; d marks the D form. Side chains are listed from the residue outwards. Peptide text beside a SMILES is read from it. * marks the point of attachment. C20 diacid = O=C(O)CCCCCCCCCCCCCCCCCCC(=O)*; γGlu = O=C(O)[C@H](CCC(=O)[*:2])N[*:1]; AEEA = NCCOCCOCC(=O)O; Aib = CC(C)(N)C(=O)O
What was measured:
[1] = molecular target: T1, human GLP-2 receptor (Homo sapiens, UniProt O95838, D470N); assay: GLP-2 receptor potency assay (cAMP AlphaScreen); format: cell-based; details: HEK293 cells expressing human GLP-2R, cAMP response; N/A = no detectable activity
T1 sequence (O95838 1-553 D470N): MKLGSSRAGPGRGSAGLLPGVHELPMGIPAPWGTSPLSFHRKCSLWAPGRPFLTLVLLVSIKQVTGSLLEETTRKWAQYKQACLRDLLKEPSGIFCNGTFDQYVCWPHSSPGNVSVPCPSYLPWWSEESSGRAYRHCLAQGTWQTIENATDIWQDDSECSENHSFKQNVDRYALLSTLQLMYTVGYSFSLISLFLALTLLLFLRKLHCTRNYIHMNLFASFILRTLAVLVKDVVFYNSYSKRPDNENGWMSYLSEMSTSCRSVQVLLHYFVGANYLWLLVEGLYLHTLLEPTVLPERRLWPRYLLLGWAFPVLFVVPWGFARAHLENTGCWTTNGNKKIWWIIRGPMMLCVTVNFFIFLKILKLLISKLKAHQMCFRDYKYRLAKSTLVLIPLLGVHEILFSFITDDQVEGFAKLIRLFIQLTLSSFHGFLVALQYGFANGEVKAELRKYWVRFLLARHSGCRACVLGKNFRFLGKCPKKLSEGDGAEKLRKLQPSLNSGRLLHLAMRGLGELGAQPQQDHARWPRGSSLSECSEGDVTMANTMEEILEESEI
Description: The hGLP2-R was purchased from MRC-geneservice, Babraham, Cambridge as an Image clone: 5363415 (11924-117). For subcloning into a mammalian expression vector, primers for subcloning were obtained from DNA-Technology, Risskov, Denmark. The 5′ and 3′ primers used for the PCR reaction include terminal restriction sites for cloning and the context of the 5′ primer is modified to a Kozak consensus without changing the sequence of the product encoded by the ORF. A standard PCR reaction was run using Image clone 5363415 (11924-117) as a template with the above mentioned primers and Polymerase Herculase II Fusion in a total vol. of 50 μl. The generated PCR product was purified using GFX PCR and Gel band purification kit, digested with restriction enzymes and cloned into the mammalian expression vector using Rapid DNA Ligation Kit. Ligation reaction was transformed to XL10 Gold Ultracompetent cells and colonies were picked for DNA production using Endofree Plasmid maxi kit. Subsequent sequence analysis was conducted by MWG Eurofins, Germany.
HEK293 cells were transfected using the Lipofectamine PLUS transfection method. The day before transfection, HEK293 cells were seeded in two T75 flasks at a density of 2×10^6 cells/T75 flask in cell culturing medium without antibiotics. […] Following 4 weeks in G418 selection, clones were picked and tested in a functional GLP-2 receptor potency assay as described below.
Data from test compounds eliciting an increase in the intracellular level of cAMP were normalized relative to the positive and negative control (vehicle) to calculate the EC50 and maximal response from the concentration response curve.

[2] = molecular target: T2, human GLP-1 receptor (Homo sapiens, UniProt P43220); assay: GLP-1 receptor potency assay (cAMP AlphaScreen); format: cell-based; details: HEK293 cells expressing human GLP-1R, cAMP response
T2 construct: expressed in transfected cells
Description: The cDNA encoding the human glucagon-like peptide 1 receptor (GLP-1R) (primary accession number P43220) was cloned from the cDNA BC112126(MGC:138331/IMAGE:8327594). The DNA encoding the GLP-1-R was amplified by PCR using primers encoding terminal restriction sites for subcloning. The 5′-end primers additionally encoded a near Kozak consensus sequence to ensure efficient translation. The fidelity of the DNA encoding the GLP-1-R was confirmed by DNA sequencing. The PCR products encoding the GLP-1-R were subcloned into a mammalian expression vector containing a neomycin (G418) resistance marker. The mammalian expression vectors encoding the GLP-1-R were transfected into HEK293 cells by a standard calcium phosphate transfection method. 48 hours post- transfection, cells were seeded for limited dilution cloning and selected with 1 mg/ml G418 in the culture medium. Following 3 weeks in G418 selection clones were picked and tested in a functional GLP-1 receptor potency assay as described below. One clone was selected for use in compound profiling.
GLP-1R and GLP-2 receptor potency assays.
The cAMP AlphaScreen® assay from Perkin Elmer was used to quantitate the cAMP response to activation of the GLP1 and GLP2 receptor, respectively. […]

[3] = molecular target: T3, human GLP-2 receptor (hGLP2-R) (human, UniProt O95838)
T3 sequence: T1 sequence (O95838 1-553 D470N)

[4] = molecular target: human glucagon-like peptide 1 receptor (GLP-1R) (human) (UniProt P43220)

T2 sequence (P43220 24-463): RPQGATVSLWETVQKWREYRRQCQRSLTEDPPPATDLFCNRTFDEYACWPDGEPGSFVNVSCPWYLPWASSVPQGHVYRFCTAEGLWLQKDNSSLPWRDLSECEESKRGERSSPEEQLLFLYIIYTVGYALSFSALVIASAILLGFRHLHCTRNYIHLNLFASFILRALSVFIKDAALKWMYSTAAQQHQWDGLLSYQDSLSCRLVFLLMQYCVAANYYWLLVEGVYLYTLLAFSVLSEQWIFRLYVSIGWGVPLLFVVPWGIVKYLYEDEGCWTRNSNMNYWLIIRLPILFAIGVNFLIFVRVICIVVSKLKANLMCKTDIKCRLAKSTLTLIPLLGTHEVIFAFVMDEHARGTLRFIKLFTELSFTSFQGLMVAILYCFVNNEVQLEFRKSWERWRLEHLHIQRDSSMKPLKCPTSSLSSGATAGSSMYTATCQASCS

`CC[C@H](C)[C@H](NC(=O)[C@H](Cc1ccccc1)NC(=O)[C@H](CC(=O)O)NC(=O)[C@H](CCCCNC(=O)COCCOCCNC(=O)[C@H](CCCCN)NC(=O)[C@H](CCC(=O)O)NC(=O)[C@H](CCCCN)NC(=O)CC[C@H](NC(=O)CCCCCCCCCCCCCCCCCCC(=O)O)C(=O)O)NC(=O)[C@H](C)NC(=O)[C@H](C)NC(=O)[C@H](CCC(N)=O)NC(=O)[C@H](CCC(=O)O)NC(=O)[C@H](CC(=O)O)NC(=O)[C@H](CC(C)C)NC(=O)[C@@H](NC(=O)[C@@H](NC(=O)[C@H](C)NC(=O)[C@H](CC(C)C)NC(=O)[C@H](CCC(=O)O)NC(=O)[C@H](CO)NC(=O)[C@@H](NC(=O)[C@H](Cc1ccccc1)NC(=O)[C@H](CO)NC(=O)CNC(=O)[C@H](CCC(=O)O)NC(=O)C(C)(C)NC(=O)[C@@H](N)Cc1c[nH]cn1)[C@@H](C)O)[C@@H](C)O)[C@@H](C)CC)C(=O)N[C@@H](C)C(=O)N[C@@H](Cc1c[nH]c2ccccc12)C(=O)N[C@@H](CC(C)C)C(=O)N[C@H](C(=O)N[C@@H](CCC(=O)O)C(=O)N[C@@H](Cc1c[nH]cn1)C(=O)N[C@@H](CCCCN)C(=O)N[C@H](C(=O)N[C@H](C(=O)N[C@@H](CC(=O)O)C(=O)O)[C@@H](C)O)[C@@H](C)CC)[C@@H](C)CC` [Compound 64] (H-H[Aib]EGSFTSELATILDEQAAK([AEEA-Lys-Glu-Lys-γGlu-C20 diacid])DFIAWLIEHKITD-OH) showed a pEC50 [1] of 9.70 and a pEC50 [2] of 9.31.

Work on `CC[C@H](C)[C@H](NC(=O)[C@H](Cc1ccccc1)NC(=O)[C@H](CC(=O)O)NC(=O)[C@H](CCCNC(=N)N)NC(=O)[C@H](C)NC(=O)[C@H](C)NC(=O)[C@H](CCCCNC(=O)COCCOCCNC(=O)COCCOCCNC(=O)[C@H](CCCCN)NC(=O)[C@H](CCC(=O)O)NC(=O)[C@H](CCCCN)NC(=O)CC[C@H](NC(=O)CCCCCCCCCCCCCCCCCCC(=O)O)C(=O)O)NC(=O)[C@H](C)NC(=O)[C@H](CC(=O)O)NC(=O)[C@H](CC(C)C)NC(=O)[C@@H](NC(=O)[C@@H](NC(=O)[C@H](C)NC(=O)[C@H](CC(C)C)NC(=O)[C@H](CCC(=O)O)NC(=O)[C@H](CO)NC(=O)[C@@H](NC(=O)[C@H](Cc1ccccc1)NC(=O)[C@H](CO)NC(=O)CNC(=O)[C@H](CCC(=O)O)NC(=O)C(C)(C)NC(=O)[C@@H](N)Cc1c[nH]cn1)[C@@H](C)O)[C@@H](C)O)[C@@H](C)CC)C(=O)N[C@@H](C)C(=O)N[C@@H](Cc1c[nH]c2ccccc12)C(=O)N[C@@H](CC(C)C)C(=O)N[C@H](C(=O)N[C@@H](CCC(=O)O)C(=O)N[C@@H](Cc1c[nH]cn1)C(=O)N[C@@H](CCCCN)C(=O)N[C@H](C(=O)N[C@H](C(=O)N[C@@H](CC(=O)O)C(=O)O)[C@@H](C)O)[C@@H](C)CC)[C@@H](C)CC` [Compound 63] (H-H[Aib]EGSFTSELATILDAK([AEEA-AEEA-Lys-Glu-Lys-γGlu-C20 diacid])AARDFIAWLIEHKITD-OH) yielded a pEC50 [1] of 9.77 and a pEC50 [2] of 9.51.

In the case of “Teduglutide (from UniProt P01275) (peptide)”, the EC50 GLP-2 (nM), cAMP AlphaScreen [3] was 0.027 nM and the EC50 GLP-1 (nM), cAMP AlphaScreen [4] was 39 nM.
